Results reported in patent publication US9233095B2, “Small molecule RNase inhibitors and methods of use” (University of Rochester, priority 2011, dated 2016).
Values after ≈ are worked out from the molar mass of the structure shown.

What was measured:
Type in all cases: cell-based
[1] = tested on: S. aureus cellular mRNA degradation; assay: GeneChip mRNA turnover of RNPA1000 challenged cells; conditions: 0.5× MIC, 30 min treatment, versus mock treated cells
Protocol: For half life determinations, S. aureus strain UAMS-1, RN4220 (pCN51; plasmid containing CdCl2 inducible promoter), RN4220 (pRNPA; pCN51 capable of producing full length rnpA mRNA), or RN4220 (pRNPA-A.S.; pCN51 capable of producing rnpA antisense RNA) were grown to mid-exponential or stationary phase, transcription was arrested by the addition of rifampin (200 μg/ml), and aliquots were removed at 0-, 2.5-, 5-, 15- and 30-min post-transcriptional arrest for strain UAMS-1. To conserve reagents, aliquots were removed at 0 and 10 min post-transcriptional arrest for RN4220 derivatives. Plating ensured cultures had not developed rifampin resistance. Each strain and/or growth phase was assessed twice, except for RN4220 pRNPA-A.S. cells which were assessed four times. RNA was isolated from each aliquot, labeled, hybridized to an S. aureus GeneChip (Affymetrix; Santa Clara, Calif.), duplicates were averaged, and the mRNA half-lives of all mRNA species were determined, as previously described (see Anderson et al., J Bacteriol, 188: 6739-6756 (2006); Roberts et al., J Bacteriol, 188: 2593-2603 (2006)). […] Transcript synthesis was then arrested and the transcript titers of mRNA species were measured at 0- and 5-min post-transcriptional arrest (see Anderson et al., J Bacteriol, 188: 6739-6756 (2006); Roberts et al., J Bacteriol, 188: 2593-2603 (2006)). […]

S. aureus (MRSA) = assay: CLSI broth microdilution MIC; conditions: Staphylococcus aureus
From the text: (§1) In some examples, compounds can be further assayed using the Mueller Hinton (MH) broth antibacterial assay as specified by the Clinical and Laboratory Standards Institute MIC broth microdilution protocol (see Methods for Dilution Antimicrobial Susceptibility Tests for Bacteria That Grow Aerobically; Approved Standard, In The Clinical and Laboratory Standards Institute (CLSI, formerly NCCLS), 7th ed., January 2006, 26 (2), M7-A7; see also Performance Standards for Antimicrobial Susceptibility Testing; Eighteenth Informational Supplement, In The Clinical and Laboratory Standards Institute (CLSI, formerly NCCLS), January 2008, 28 (1), M100-S18).
(§2) With the exception of RN4220-derivatives, in vitro activities of RNPA1000 against bacteria were determined by the broth microdilution method according to the Clinical and Laboratory Standards Institute (CLSI) guidelines using cation adjusted Mueller-Hinton broth or MH broth supplemented with 5% lysed horse blood (for testing Streptotococcus spp.). Microtiter plates containing serial dilutions of RNPA1000 (0, 4, 8, 16, 32, 64, and 128 μg/ml) were inoculated with 10^5 colony forming units (CFU)/ml and incubated for 18 hr at 37° C. […] The MIC value for each S. aureus strain was determined to be the median score of replicate measurements (n=5). Wells containing concentrations of RNPA1000≧MIC were plated for minimal bactericidal measurement. Where possible, experiments with VRSA strains were performed in a laminar flow hood to minimize potential for equipment contamination. For RN4220 cells containing plasmid vector (pCN51), RnpA overproducing plasmid (pRNPA-S) or RnpA underproducing plasmid (pRNPA-A.S.) in vitro antimicrobial activity of RNPA1000 was performed by the microdilution method as described above, except that cells were grown in Tryptic Soy Broth medium supplemented with 2.5 μM CdCl2 and 0, 1, 2, 4, 8, 16, 32, 64, or 128 μg/ml RNPA1000. Time-kill assays were also performed to monitor the antimicrobial properties of RNPA1000 for S. aureus strain UAMS-1 in the absence and presence of 0.25, 0.5, 2, and 4 times the strain's MIC for oxacillin (1 μg/ml), rifampicin (0.5 μg/ml), vancomycin (2 μg/ml), or daptomycin (1 μg/ml). The indicated amount of RNPA1000 and/or commercial antibiotic were added to mid-exponential phase (2×10^8 cfu/ml) S. aureus strain UAMS-1 cells and incubated at 37° C. Aliquots were removed at 0, 2, 4, 8, and 24 hr post-antimicrobial challenge, serial diluted, and plated to enumerate resulting cfu/ml. All time-kill assays were repeated at least 3 times.

S. pyogenes = assay: CLSI broth microdilution MIC; conditions: Streptococcus pyogenes; S. pyogenes Isolate 1
From the text: as §1, §2

S. pneumoniae (MDR) = assay: CLSI broth microdilution MIC; conditions: Streptococcus pneumoniae
From the text: as §1, §2

S. agalactiae = assay: CLSI broth microdilution MIC; conditions: Streptococcus agalactiae
From the text: as §1, §2

S. aureus RN4220 = assay: microdilution MIC of RnpA over- and under-producing cells; conditions: Staphylococcus aureus, 2.5 μM CdCl2
Protocol: as §2, with “The indicated amount of RNPA1000 and/or commercial antibiotic were added to mid-exponential phase (2×10^8 cfu/ml) S. aureus strain UAMS-1 cells and incubated at 37° C. Aliquots were removed at 0, 2, 4, 8, and 24 hr post-antimicrobial challenge, serial diluted, and plated to enumerate resulting cfu/ml. All time-kill assays were repeated at least 3 times.” left out
To assess whether the susceptibility of S. aureus to RNPA1000 was attributable to the inhibition of cellular RnpA, the mRNA turnover properties of S. aureus that were challenged with a sub-inhibitory concentration of RnpA-inhibitor (0.5× MIC) were directly measured. […] To more directly determine whether RNPA1000's antimicrobial effects are mediated through cellular inhibition of RnpA, the RNPA1000 susceptibility of S. aureus RnpA over- and under-producing cells was assessed. […]

S. aureus strain UAMS-1 = assay: time-kill assay
Protocol: as §2

[2] = combination time-kill, data not shown

Question: `Cc1cc(/C=C(/C#N)C(=O)Nc2cccc(Br)c2)c(C)n1-c1ccc(C(=O)O)cc1` [RNPA1000] was tested. Which “mRNA degradation rate of S. aureus cells” value [1] did it give?
Answer: reduced the mRNA degradation rate

Question: What about the MIC (S. aureus (MRSA); MRSA / USA100, strain USA100) of the same compound?
Answer: 26 µg/mL (≈ 56 µM)

Question: And the MIC (S. aureus (MRSA); MRSA / USA200, strain USA200)?
Answer: 32 µg/mL (≈ 68.9 µM)

Question: What about the MIC (S. aureus (MRSA); MRSA / USA300, strain USA300 (USA300-0114)) of the same compound?
Answer: 23 µg/mL (≈ 49.5 µM)

Question: And the MIC (S. aureus (MRSA); MRSA / USA400, strain USA400)?
Answer: 23 µg/mL (≈ 49.5 µM)

Question: And the MIC (S. aureus (MRSA); MRSA / USA500, strain USA500)?
Answer: 23 µg/mL (≈ 49.5 µM)

Question: And the MIC (S. aureus (MRSA); MRSA / USA600, strain USA600)?
Answer: 32 µg/mL (≈ 68.9 µM)

Question: And the MIC (S. aureus (MRSA); MRSA / USA700, strain USA700)?
Answer: 32 µg/mL (≈ 68.9 µM)

Question: What about the MIC (S. aureus (MRSA); MRSA / USA800, strain USA800) of the same compound?
Answer: 23 µg/mL (≈ 49.5 µM)

Question: What about the MIC (S. aureus (MRSA); MRSA, strain USA900) of the same compound?
Answer: 32 µg/mL (≈ 68.9 µM)

Question: And the MIC (S. aureus (MRSA); MRSA, strain USA1000)?
Answer: 29 µg/mL (≈ 62.5 µM)

Question: What about the MIC (S. aureus (MRSA); MRSA, strain USA1100) of the same compound?
Answer: 32 µg/mL (≈ 68.9 µM)

Question: What about the MIC (S. pyogenes) of the same compound?
Answer: 8 µg/mL (≈ 17.2 µM)

Question: And the MIC (S. pneumoniae (MDR); S. pneumoniae (MDR) Isolate 1)?
Answer: 32 µg/mL (≈ 68.9 µM)

Question: What about the MIC (S. pneumoniae (MDR); S. pneumoniae (MDR) Isolate 2) of the same compound?
Answer: 32 µg/mL (≈ 68.9 µM)

Question: What about the MIC (S. pneumoniae (MDR); S. pneumoniae (MDR) Isolate 3) of the same compound?
Answer: 16 µg/mL (≈ 34.5 µM)

Question: And the MIC (S. pneumoniae (MDR); S. pneumoniae (MDR) Isolate 4)?
Answer: 32 µg/mL (≈ 68.9 µM)

Question: What about the MIC (S. pneumoniae (MDR); S. pneumoniae (MDR) Isolate 5) of the same compound?
Answer: 16 µg/mL (≈ 34.5 µM)

Question: What about the MIC (S. agalactiae; S. agalactiae Isolate 1) of the same compound?
Answer: 16 µg/mL (≈ 34.5 µM)

Question: And the MIC (S. agalactiae; S. agalactiae Isolate 2)?
Answer: 32 µg/mL (≈ 68.9 µM)

Question: What about the MIC (S. agalactiae; S. agalactiae Isolate 3) of the same compound?
Answer: 32 µg/mL (≈ 68.9 µM)

Question: And the MIC (S. agalactiae; S. agalactiae Isolate 4)?
Answer: 32 µg/mL (≈ 68.9 µM)

Question: What about the MIC (S. aureus RN4220; RN4220, RN4220 RnpA overproducing cells) of the same compound?
Answer: 32 µg/mL

Question: What about the MIC (S. aureus RN4220; RN4220, RN4220 RnpA underproducing cells (antisense)) of the same compound?
Answer: 8 µg/mL

Question: And the MIC (S. aureus RN4220; RN4220, RN4220 vector containing cells (pCN51))?
Answer: 32 µg/mL

Question: And the “mode of antimicrobial action in time kill assays” value (S. aureus strain UAMS-1; 0.25-4 times the MIC, 0-24 hr)?
Answer: bacteriostatic

Question: And the “effect on the potency of oxacillin” value (S. aureus strain UAMS-1; combination time-kill, 0.5 times the MIC of each)?
Answer: mildly increase the potency

Question: What about the “effect on the antimicrobial activity of daptomycin” value (S. aureus strain UAMS-1; [2]) of the same compound?
Answer: does not affect the antimicrobial activities

Question: What about the “effect on the antimicrobial activity of rifampicin” value (S. aureus strain UAMS-1; [2]) of the same compound?
Answer: does not affect the antimicrobial activities

Question: And the “effect on the antimicrobial activity of vancomycin” value (S. aureus strain UAMS-1; [2])?
Answer: does not affect the antimicrobial activities
